Data on 7 compounds can be found in PubChem BioAssay (NCI).

Some test systems named below: DU-145 prostate; EKVX NSCLC; HCC-2998 colon; HCT-15 colon; HS 578T breast; K-562 leukemia; LOX IMVI melanoma; M14 melanoma; MOLT-4 leukemia; NCI-H522 lung; NCI/ADR-RES ovarian; PC-3 prostate; SF-295 CNS; SK-MEL-5 melanoma; SN12C renal; SNB-75 CNS; SR leukemia; U251 CNS; UACC-62 melanoma.
Holding throughout (experiment): NCI anticancer screen, dose series, 48 h

SMILES strings stand for the structures.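 Where inhibition never reached the appropriate level, the endpoint shown equals the highest concentration tested. Otherwise, values were interpolated linearly from a five-concentration, 48-hour dose response in 96-well plates. TGI: total growth inhibition.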 Some results are limits rather than exact numbers.

Regarding `CCCCCCCC/C=C\CCCCCCCC(=O)OC[C@]1(CO)CCC(=O)O1`, the TGI in the experiment with DU-145 prostate, in the experiment on EKVX NSCLC, in the experiment with HCC-2998 colon, in the experiment with HCT-15 colon, in the experiment with HS 578T breast and in the experiment with K-562 leukemia was > 100 µM each time. The TGI in the experiment on LOX IMVI melanoma, in the experiment on M14 melanoma, in the experiment with MOLT-4 leukemia, with NCI-H522 lung, in the experiment on NCI/ADR-RES ovarian and with PC-3 prostate was > 100 µM throughout. The TGI in the experiment with SF-295 CNS, in the experiment on SK-MEL-5 melanoma, in the experiment with SN12C renal, in the experiment on SNB-75 CNS, with SR leukemia and in the experiment with U251 CNS was > 100 µM throughout. In the experiment with UACC-62 melanoma, the TGI is > 100 µM.
For `Cc1nc2c(=O)n(C)c(=O)nc-2n(CCO)c1C`, the TGI with DU-145 prostate, in the experiment with EKVX NSCLC, with HCC-2998 colon, in the experiment on HCT-15 colon, in the experiment with HS 578T breast and with K-562 leukemia was > 100 µM throughout. The TGI in the experiment on LOX IMVI melanoma, with M14 melanoma, in the experiment with MOLT-4 leukemia, in the experiment with NCI-H522 lung, in the experiment on NCI/ADR-RES ovarian and in the experiment on PC-3 prostate was > 100 µM in each case. Also, the TGI in the experiment with SF-295 CNS, in the experiment with SK-MEL-5 melanoma, with SN12C renal, in the experiment with SNB-75 CNS, with SR leukemia and in the experiment with U251 CNS was > 100 µM each time. Besides, the TGI with UACC-62 melanoma was > 100 µM.
For the compound `O=c1oc2ccccc2cc1-c1csc(Nc2cc(Cl)cc(Cl)c2)n1`, the TGI is > 100 µM in the experiment on DU-145 prostate; > 100 µM in the experiment with EKVX NSCLC; > 100 µM in the experiment with HCC-2998 colon; > 100 µM with HCT-15 colon; 98.1 µM in the experiment on HS 578T breast; > 100 µM in the experiment on K-562 leukemia. Further, the TGI is 7.62 µM with LOX IMVI melanoma; > 72.2 µM in the experiment with M14 melanoma; > 100 µM in the experiment with MOLT-4 leukemia; 96.6 µM in the experiment with NCI-H522 lung; > 83.7 µM in the experiment on NCI/ADR-RES ovarian; > 100 µM in the experiment with PC-3 prostate. The TGI with SF-295 CNS is > 44.5 µM; in the experiment with SK-MEL-5 melanoma it was > 100 µM; in the experiment on SN12C renal it was > 44.8 µM; in the experiment on SNB-75 CNS, 11.8 µM; with SR leukemia, > 100 µM; in the experiment with U251 CNS it was 11.7 µM. In the experiment with UACC-62 melanoma, the TGI is > 100 µM.
On to `N#Cc1c(N)c2c(c(-c3ccccc3)c1-c1ccccc1)C(=O)N(Nc1ccccc1)C2=O`, for which the TGI in the experiment on DU-145 prostate, in the experiment on EKVX NSCLC, in the experiment with HCC-2998 colon, with HCT-15 colon, with HS 578T breast and with K-562 leukemia was > 100 µM in each case. Besides, the TGI in the experiment on LOX IMVI melanoma is 86.8 µM; in the experiment on M14 melanoma, 87.4 µM; in the experiment on MOLT-4 leukemia, > 100 µM; in the experiment on NCI-H522 lung it was > 100 µM; in the experiment on NCI/ADR-RES ovarian it was > 100 µM; with PC-3 prostate, > 100 µM. The TGI in the experiment on SF-295 CNS was > 100 µM; with SK-MEL-5 melanoma, 78.5 µM; in the experiment with SN12C renal, > 100 µM; in the experiment on SNB-75 CNS, > 100 µM; with SR leukemia, > 100 µM; with U251 CNS it was > 100 µM. For the same compound, the TGI with UACC-62 melanoma is > 100 µM.
As for `N#CC(c1ccccc1)N(CCc1ccccc1)C(=O)c1ccccc1` (stereo not drawn), the TGI with DU-145 prostate is > 100 µM; in the experiment on EKVX NSCLC, > 100 µM; in the experiment on HCC-2998 colon, > 100 µM; with HCT-15 colon, > 100 µM; in the experiment with HS 578T breast, 86.3 µM; in the experiment with K-562 leukemia, > 100 µM. Besides, the TGI in the experiment with LOX IMVI melanoma, with M14 melanoma, with MOLT-4 leukemia, in the experiment on NCI-H522 lung, with NCI/ADR-RES ovarian and with PC-3 prostate was > 100 µM throughout. The TGI in the experiment on SF-295 CNS was > 100 µM; with SK-MEL-5 melanoma it was > 100 µM; with SN12C renal, > 100 µM; with SNB-75 CNS it was 57.2 µM; in the experiment with SR leukemia, > 100 µM; in the experiment with U251 CNS, > 100 µM. Besides, the TGI in the experiment on UACC-62 melanoma is > 100 µM.
Consider `CN(CCCCN1CCCC1)CCCCN(C)C(=O)Cc1ccc(Cl)c(Cl)c1`, for which the TGI is 72 µM in the experiment on DU-145 prostate; 37 µM in the experiment with EKVX NSCLC; 18.5 µM in the experiment on HCC-2998 colon; 50 µM with HCT-15 colon; 54.5 µM in the experiment with HS 578T breast; 10.5 µM with K-562 leukemia. Moreover, the TGI with LOX IMVI melanoma was 25.2 µM; with M14 melanoma, 35.7 µM; in the experiment with MOLT-4 leukemia, 22.1 µM; with NCI-H522 lung, 27.7 µM; in the experiment with NCI/ADR-RES ovarian it was > 100 µM; in the experiment with PC-3 prostate, 36.4 µM. The TGI in the experiment with SF-295 CNS stood at 38 µM; in the experiment with SK-MEL-5 melanoma, 19.9 µM; in the experiment with SN12C renal, 36.8 µM; in the experiment on SNB-75 CNS it was 32.8 µM; with SR leukemia, 14.3 µM; in the experiment on U251 CNS, 27.8 µM. Besides, the TGI in the experiment with UACC-62 melanoma stood at 12.3 µM.
As to `C=CCOc1ccc(C2(c3ccc(OCC=C)cc3)C(=O)Nc3ccccc32)cc1`, the TGI in the experiment with DU-145 prostate was > 10 µM; in the experiment with EKVX NSCLC, > 10 µM; in the experiment with HCC-2998 colon it was > 10 µM; in the experiment on HCT-15 colon it was > 10 µM; in the experiment on HS 578T breast, 6.38 µM; with K-562 leukemia, > 10 µM. The TGI in the experiment on LOX IMVI melanoma, in the experiment with M14 melanoma, with MOLT-4 leukemia, with NCI-H522 lung, with NCI/ADR-RES ovarian and in the experiment with PC-3 prostate was > 10 µM each time. In addition, the TGI with SF-295 CNS, with SK-MEL-5 melanoma, with SN12C renal, in the experiment with SNB-75 CNS, in the experiment with SR leukemia and in the experiment with U251 CNS was > 10 µM in each case. In addition, the TGI with UACC-62 melanoma is > 10 µM.
